The values that follow come from patent publication US12036228B2, “Treatment of seizure disorders” (Shackelford Pharma Inc., priority 2022, dated 2024).

For data set [1], the system named is GTC seizures in human patients. In words: THC treatment of several human patients with GTC seizures (responder rate, one-year remission rate, adverse effects). Type of data set: in vivo. The source says: Several human patients commenced treatment with THC after a first visit. More details about the treatment are provided below. The group included 82 total adult patients and 12 total pediatric patients. Of those 94 patients, 34 adult patients and 10 pediatric patients had experienced at least one GTC seizure in the year preceding the first visit. At the time of first visit, 14 of the 34 adult patients and 8 of the 10 pediatric patients had never taken THC. At the time of first visit, five of the 34 adult patients and two of the 10 pediatric patients were consistently/regularly taking THC. At the time of first visit, 15 of the 34 adult patients and none of the 10 pediatric patients were inconsistently/irregularly taking THC or had taken THC at some point in the past and were no longer taking THC.
At the time of first visit, 16 of the 34 adult patients had treatment resistant epilepsy, which means the patients had persistent GTC seizures despite taking two different anti-seizure medications at, or prior to, the first visit. At the time of first visit, all 10 of the pediatric patients had treatment resistant epilepsy.
The first visit means the date when the patient first saw the doctor for evaluation for THC treatment for GTC seizures. Responder rates means the percentage of patients that had at least a 50% reduction in GTC seizure frequency over a one-year treatment period with THC. One-year remission rate means the percentage of patients that experienced no GTC seizures in a one-year period after commencing THC treatment.
All of the 34 adult patients and 10 pediatric patients were taking other anti-seizure medications or had other anti-seizure treatment at the time of the first visit. […] Those anti-seizure medications and other anti-seizure treatments included: lamotrigine, topiramate, topiramate XR, vagus nerve stimulation, phenytoin, valproic acid, zonisamide, benzodiazepine, surgery, levetiracetam, carbamazepine, oxcarbazepine, lacosamide, perampanel, clonazepam, phenobarbial, pregabalin, gabapentin, rufinamide, CBD (e.g., Epidiolex), clobazam, and felbamate. Also, all patients who were using THC oral dosages were using products that included no CBD or products that included CBD in doses well below the therapeutic dose for Epidiolex.
THC Treatment for the 82 adult patients varied. Many of the patients smoked marijuana, so the dosage and/or timing of the dosage was unknown. Because CBD is delivered at sub-therapeutic levels when marijuana is smoked, it is acceptable to attribute any therapeutic effect to THC. The label for the CBD drug Epidiolex includes dosages starting at 5 mg/kg daily for all indications, and increasing to maintenance doses of 10 mg/kg or 20 mg/kg for Lennox-Gestault Syndrome and Dravet Syndrome, and increasing to maintenance doses of 25 mg/kg per day for Tuberous Sclerosis Complex. When 1 gram of cannabis is smoked, it delivers CBD to the lungs in doses well below the therapeutic dose levels prescribed for Epidiolex. Some other patients took unknown dosages of THC orally.

The subject of data set [2] is seizures / EEG abnormalities in human patient. In words: Example 8 pediatric patient with atonic seizures, myoclonic seizures and Doose syndrome (24 hour EEG, seizures). Particulars: CBD transdermal patches. It counts as in vivo. As for the experimental part:
They had continued to experience several seizures per day of all types despite multiple combination regimens of prescription anti-seizure medications and a trial of THC-A transdermal patch and CBD (Charlotte's Web) oral tincture and CBD transdermal patches up until the day they were first evaluated for cannabinoid treatment (age 4.5 on Mar. 8, 2016). […] They were then prescribed 1 mg oral THC tincture three times per day. On Mar. 8, 2018, the patient returned for follow-up where it was learned that all cannabinoids had been discontinued. […] The THC-A transdermal patch was restarted at 1.875 mg/day with a reduction in EEG abnormalities to 400/24 hours. Oral THC 2.5 mg BID was then restarted with a further reduction in EEG abnormalities to 20/24 hours. […] Due to the significant reduction in brain pre-seizure activity after restarting THC and concerns that there are effective dosage variations among transdermal products, the patient was then prescribed oral THC 2.5 mg BID which they continue to take.

Data set [3] has as its system seizures in human patient. As to the kind of experiment: Example 3 human patient, GTC and complex partial seizures. It counts as in vivo. The source says:
A patient first started having GTC and complex partial (CP) seizures. […] The patient was referred for evaluation for initiation of cannabinoid/THC treatment in March 2014.

Data set [4] concerns DS, LGS, TSC patients. In words: EPIDIOLEX pediatric randomized controlled clinical trials (RCTs). It counts as in vivo, human. Particulars: Ped. RCTs; expected 5%.
Data set [5] relates to Treatment Resistant Epilepsy patients. In words: EPIDIOLEX expanded access program (EAP), adults and pediatrics. Particulars: expected 5%. Type of data set: in vivo, human.
The subject of data set [6] is DS, LGS, TSC patients. Particulars: Ped. RCTs, cited from earlier work.
In data set [7] the test system is Treatment Resistant Epilepsy patients. Particulars: EAP, cited from earlier work.
For data set [8], the system named is GTC seizures in human patient. As to the kind of experiment: Example 6 human patient, GTC and CPS seizures after temporal lobectomy. Particulars: re-introduction of lamotrigine (225 mg twice a day). It counts as in vivo. As for the experimental part: A patient with a longstanding history of GTC and CPS seizures ([…]) was evaluated for surgical intervention and underwent a right temporal lobectomy in 2013. No seizure activity was experienced for 9 months; thereafter, seizures recurred with GTC seizures occurring one time per week requiring hospitalization.
The patient was first evaluated for cannabinoid treatment on Feb. 11, 2016, […] with their parents (caregivers). They were still experiencing approximately 1 GTC seizure per month at that time. On physical examination, their neurological system was grossly within normal limits. The patient's mentation was evaluated as slow, but they were responsive and fully oriented. At the time of this first visit, they had no previous exposure to cannabinoid treatment.

`C=C(C)[C@@H]1CCC(C)=C[C@H]1c1c(O)cc(CCCCC)cc1O` [CBD, cannabidiol]: the “seizure outcome, individual pediatric patient” value in data set [1] (CBD-only containing product, 134 mg CBD per day and no THC) was “frequent “violent” GTC seizures”. The “seizure frequency and severity, individual pediatric patient” value in data set [1] (switched to 30 mg CBD only (2015)) was “seizure frequency and severity increased”. In addition, the effect on seizures entry is “worsened seizures in a dose-related fashion” in data set [2]; “no improvement in their seizures” in data set [3] (CBD patches and an oral CBD spray); “no improvement” in data set [3] (oral CBD 0.48 mg/kg, or 50 mg per day, along with topiramate).
On to `C=C(C)[C@@H]1CCC(C)=C[C@H]1c1c(O)cc(CCCCC)cc1O` [EPIDIOLEX ®], for which the “Increase in 1 YR Seizure Remission Rate over expected” value was about 1.4X in the data set with DS, LGS, TSC patients [4] and about 2.2X in data set [5]. The “1 YR Seizure Remission Rate” value in the data set on DS, LGS, TSC patients [6] (@14 wks) is 6-7% @14 wks; in data set [7] (@48 wks), 11% @48 wks. For the same compound, the “Responder Rate” value with DS, LGS, TSC patients [6] (DS, LGS, TSC, @ 14 wks) is reported as about 45% @ 14; in data set [7] (TRE, @48 wks), 53% @48 wks. Also, the “Adverse Events” value is “Up to 12%” in the data set on DS, LGS, TSC patients [6] and 7% in data set [7].
As to `Nc1nnc(-c2cccc(Cl)c2Cl)c(N)n1` [lamotrigine], the effect on seizures entry in data set [3] (lamotrigine 60 mg twice daily) is given as “still having seizures”. For the same compound, the seizure frequency result in data set [8] is on record as “decreased to 1 GTC seizure about every month”.
